Measurements from ChEMBL document CHEMBL5137119, “Total Syntheses and Antibacterial Evaluations of Neocyclomorusin and Related Flavones” (2022).
≈ marks a conversion by molar mass, not a printed value.

Key:
Assay type in all cases: functional
[1] = tested on: Staphylococcus aureus; experiment: Antibacterial activity against Staphylococcus aureus ATCC 25923 assessed as inhibition of bacterial growth incubated for 24 hrs by optical density based analysis
[2] = tested on: Bacillus subtilis; experiment: Antibacterial activity against Bacillus subtilis ATCC 11774 assessed as inhibition of bacterial growth incubated for 24 hrs by optical density based analysis
[3] = tested on: Staphylococcus epidermidis; experiment: Antibacterial activity against Staphylococcus epidermidis ATCC 51625 assessed as inhibition of bacterial growth incubated for 24 hrs by optical density based analysis
[4] = tested on: Staphylococcus aureus; experiment: Antibacterial activity against Staphylococcus aureus assessed as inhibition of bacterial growth
[5] = tested on: Escherichia coli; experiment: Antibacterial activity against Escherichia coli ATCC 25922 assessed as inhibition of bacterial growth incubated for 24 hrs by optical density based analysis
[6] = tested on: Klebsiella pneumoniae; experiment: Antibacterial activity against Klebsiella pneumoniae assessed as inhibition of bacterial growth incubated for 18 hrs by p-iodonitrotetrazolium chloride dye based colorimetric assay
[7] = tested on: Klebsiella aerogenes; experiment: Antibacterial activity against Enterobacter aerogenes assessed as inhibition of bacterial growth incubated for 18 hrs by p-iodonitrotetrazolium chloride dye based colorimetric assay
[8] = tested on: Pseudomonas aeruginosa; experiment: Antibacterial activity against Pseudomonas aeruginosa assessed as inhibition of bacterial growth incubated for 18 hrs by p-iodonitrotetrazolium chloride dye based colorimetric assay
[9] = tested on: Enterobacter cloacae; experiment: Antibacterial activity against Enterobacter cloacae assessed as inhibition of bacterial growth incubated for 18 hrs by p-iodonitrotetrazolium chloride dye based colorimetric assay
[10] = tested on: Escherichia coli; experiment: Antibacterial activity against Escherichia coli assessed as inhibition of bacterial growth incubated for 18 hrs by p-iodonitrotetrazolium chloride dye based colorimetric assay
[11] = tested on: Providencia stuartii; experiment: Antibacterial activity against Providencia stuartii assessed as inhibition of bacterial growth incubated for 18 hrs by p-iodonitrotetrazolium chloride dye based colorimetric assay

MIC [4] [µg/mL] | MIC [6] [µg/mL] | MIC [7] [µg/mL] | MIC [8] [µg/mL] | MIC [9] [µg/mL] | MIC [10] [µg/mL] | MIC [11] [µg/mL] | Compound | MIC [1] [µg/mL] | MIC [2] [µg/mL] | MIC [3] [µg/mL] | MIC [5] [µg/mL]
128 (≈ 333 µM) |  |  |  |  |  |  | COc1cc(O)c2c(=O)c3c(oc2c1)-c1ccc(O)cc1OC(C(C)(C)O)C3 (stereo unspecified) | 128 (≈ 333 µM) | > 128 | > 128 | > 128
 |  |  |  |  |  |  | CC1(C)S[C@@H]2[C@H](NC(=O)[C@H](N)c3ccccc3)C(=O)N2[C@H]1C(=O)O [AMPICILLIN] | 4 (≈ 11.4 µM) | > 128 | 128 (≈ 366 µM) | 64 (≈ 183 µM)
 |  |  |  |  |  |  | CC(C)=CCc1c(-c2ccc(O)cc2O)oc2cc3c(c(O)c2c1=O)C=CC(C)(C)O3 [CUDRAFLAVONE B] | 4 (≈ 9.51 µM) | 16 (≈ 38.1 µM) | 16 (≈ 38.1 µM) | > 128
 |  |  |  |  |  |  | NC[C@H]1O[C@H](O[C@H]2[C@H](O)[C@@H](O[C@H]3O[C@H](CO)[C@@H](O)[C@H](N)[C@H]3O)[C@H](N)C[C@@H]2N)[C@H](O)[C@@H](O)[C@@H]1O [KANAMYCIN] | 4 (≈ 8.26 µM) | 2 (≈ 4.13 µM) | 1 (≈ 2.06 µM) | 16 (≈ 33 µM)
 |  |  |  |  |  |  | CC(C)=CCc1c(-c2ccc(O)cc2O)oc2c3c(cc(O)c2c1=O)OC(C)(C)C=C3 [MORUSIN] | 8 (≈ 19 µM) | 16 (≈ 38.1 µM) | 8 (≈ 19 µM) | > 128
 | 4 (≈ 9.16 µM) | 4 (≈ 9.16 µM) | 4 (≈ 9.16 µM) | 4 (≈ 9.16 µM) | 4 (≈ 9.16 µM) | 4 (≈ 9.16 µM) | CC1(C)C=Cc2c(cc(O)c3c(=O)c4c(oc23)-c2ccc(O)cc2OC(C(C)(C)O)C4)O1 (stereo unspecified) [NEOCYCLOMORUSIN] | 64 (≈ 147 µM) | 64 (≈ 147 µM) | > 128 | > 128
